Assay results as given in patent US20240408167A1, “COMPOSITION FOR TREATING OCULAR DISEASES CONTAINING PEPTIDE” (Encuragen Inc., priority 2023, published 2024).

Columns and labels:
CD4+IFN-γ+T cell = CD4+IFN-γ+T cell density by flow cytometry, EDE mouse model; assay type: in vivo
Procedure: The cornea, conjunctiva, and each tissue required for analysis were excised with scissors, incised, and shaken with 0.5 mg/mL collagenase type D at 37° C. for 1 hour. After pulverizing the tissue, the resulting mixture was passed through a cell strainer, centrifuged, and resuspended in phosphate-buffered saline containing 1% bovine serum albumin.
In DED, corneal barrier destruction and epithelial cell loss are accompanied by bone marrow and T cell infiltration. Activated T lymphocytes are the primary producers of Th-1 cytokines and interferon (IFN)-γ, which promote cell death at the ocular surface. To evaluate the anti-inflammatory effect of (PEG)-BHD1028 in the EDE mouse model, immune cells that play the role of inflammatory cell surface markers were quantified by flow cytometry with one animal per group.

pI value of the API = assay type: physicochemical

NH2-Tyr-Tyr-Phe-Ala-Tyr-His-Pro-Asn-Ile-Pro-Gly-Leu-Tyr-Tyr-Phe-COOH (H-YYFAYHPNIPGLYYF-OH; also: PEGylated, site not given here (mPEG), acetate salt) [(PEG)-BHD1028]
CD4+IFN-γ+T cell density (CD4+IFN-γ+T cell; conjunctiva, 0.001%): 18.96%
CD4+IFN-γ+T cell density (CD4+IFN-γ+T cell; conjunctiva, 0.01%): 15.31%
CD4+IFN-γ+T cell density (CD4+IFN-γ+T cell; conjunctiva, 0.1%): 9.91%
CD4+IFN-γ+T cell density (CD4+IFN-γ+T cell; cornea, 0.001%): 18.62%
CD4+IFN-γ+T cell density (CD4+IFN-γ+T cell; cornea, 0.01%): 16.78%
CD4+IFN-γ+T cell density (CD4+IFN-γ+T cell; cornea, 0.1%): 11.66%
CD4+IFN-γ+T cell density (CD4+IFN-γ+T cell; lacrimal gland, 0.001%): 18.45%
CD4+IFN-γ+T cell density (CD4+IFN-γ+T cell; lacrimal gland, 0.01%): 14.60%
CD4+IFN-γ+T cell density (CD4+IFN-γ+T cell; lacrimal gland, 0.1%): 10.70%
pI value (pI value of the API): approximately 6.6
